Laboratory results reported in patent US11779015B2, “Pesticide compositions” (FUNDACIÓ CENTRE DE REGULACIÓ GENÒMICA, priority 2017, dated 2023).
Entries after “also recorded” stand apart in the source; their conditions may differ.

Assays:
D. suzukii = assay: Airborne toxicity petri dish assay, adult flies exposed to VOC vapours (FIG. 1A); type: in vivo, Drosophila suzukii; settings: for time to 100% dead flies: monitored over 1 hour
Method: A selection of compounds according to the invention were tested for airborne toxicity to D. suzukii by exposing a population of adult D. suzukii flies to the vapours of the compound using an experimental set up as shown on FIG. 1A.
In particular, adult flies 2 were exposed to compositions 4 comprising one or more of a selection of VOCs according to the invention or a comparative example, in a petri dish 6. The compositions 4 were loaded onto the lid 6a of the petri dish 6 and the flies were placed into the base 6b of the dish, which was then covered by a sheet of plastic mesh netting 8 to avoid direct contact of the flies 2 with the compositions 4, before replacing the lid 6a.
[…] Four drops of 50 microlitres were dispensed into reinforcement rings (not shown) fixed on the inner surface of the petri dish lid 6a.
The experimental set up used was as described in relation to FIG. 1A.
The data is shown as averages±SEM based on 3 to 6 trials for each condition.

adult D. suzukii flies = assay: Petri dish assay, dose-range 0.3 to 10% vol in paraffin oil, 24 h exposure (FIG. 3E); type: in vivo, Drosophila suzukii; settings: for concentration at which toxicity is displayed (as low as): dose-range 0.3 to 10% vol in paraffin oil, 24 h exposure, adult D. suzukii; for Minimal concentration (%) to induce 100% morbidity/mortality in D. suzukii adults: paraffin oil, 24 h exposure (Example 2)
Text: Data are represented as mean proportion of dead flies, with counts separated between male (as indicated by ‘M’) and female (as indicated by ‘F’) flies. […] Data points marked NaN were not tested at the indicated concentration. The MEC column summarises the minimal effective concentration to induce 100% morbidity/mortality to adult D. suzukii flies.

[1] = tested on: honeybees (Apis mellifera); assay: Airborne toxicity on honeybees in the petri dish assay; type: in vivo; settings: paraffin oil, 24 hours
[2] = VOC at 10 M in paraffin oil, vapour exposure, 1 hour
[3] = VOC at 10 M in paraffin oil, vapour exposure

| Structure (SMILES) | airborne toxicity/lethality in the initial screen with a high dose (words) (D. suzukii; [2]) | other results |
| --- | --- | --- |
| CCCCCCC=O [heptanal, Heptanal] | showed toxicity | – |
| CCCCC/C=C/C=O [E-2-octenal] | showed toxicity | concentration at which toxicity is displayed (as low as) (adult D. suzukii flies): 2% |
| CCCCOC(=O)C1CCCC1 [butyl cyclopentanecarboxylate, Butyl cyclopentanecarboxylate] | showed toxicity | Percentage of dead honey bee adults (%) ([1]; applied concentration 3%): 0%; Minimal concentration (%) to induce 100% morbidity/mortality in D. suzukii adults (adult D. suzukii flies): 3% |
| CCCCCCCCCC/C=C/C=O [E-2-tridecenal] | showed toxicity | time to 100% dead flies (D. suzukii; [3]): an hour |
| CCCOC(=O)c1ccccc1 [propyl benzoate, Propyl benzoate] | showed toxicity | – |
| CC1=C(O)C(=O)OC1C (centres unmarked) [4,5-Dimethyl-3-hydroxy-2,5-dihydrofuran-2-one, reference compound] | showed toxicity | – |
| CCOC(=O)c1ccccc1 [ethyl benzoate, Ethyl benzoate] | showed toxicity | – |
| C=CCOC(=O)C1=CCCC1 [allyl 1-cyclopentene-1-carboxylate, Allyl 1-cyclopentene-1-carboxylate] | showed toxicity | Percentage of dead honey bee adults (%) ([1]; applied concentration 1%): 0%; concentration at which toxicity is displayed (as low as) (adult D. suzukii flies): 0.3%; Minimal concentration (%) to induce 100% morbidity/mortality in D. suzukii adults (adult D. suzukii flies): 0.5% |
| C=CC(C)(CCC=C(C)C)OC(=O)c1ccccc1 (centres unmarked) [linalyl benzoate, Linalyl benzoate, reference compound] | did not cause mortality; also recorded: not toxic | – |
| CCCCCCCC/C=C/C=O [E-2-undecenal] | showed toxicity | – |
| CCCCCCC/C=C/C=O [E-2-decenal] | – | Percentage of dead honey bee adults (%) ([1]; applied concentration 2%): 0% |
| CC=CC(=O)CC [4-hexen-3-one] | showed toxicity | Percentage of dead honey bee adults (%) ([1]; applied concentration 3%): 0%; Minimal concentration (%) to induce 100% morbidity/mortality in D. suzukii adults (adult D. suzukii flies): 3% |
| O=C(OCc1ccccc1)c1ccccc1 [benzyl benzoate, Benzyl benzoate, reference compound] | did not cause mortality | airborne toxicity/lethality in the initial screen with a high dose (words) (D. suzukii; VOC at 10 M in paraffin oil, vapour exposure, 1 hour, listed as Benzyl benzoate): not toxic |
| CCC=C(C)C=O [2-methyl-2-pentenal] | showed toxicity | – |
| CCCC/C=C/C=C/C=O [(E,E)-2,4-nonadienal] | showed toxicity | Percentage of dead honey bee adults (%) ([1]; applied concentration 2%): 0%; Percentage of dead honey bee adults (%) ([1]; applied concentration 5%): 0%; concentration at which toxicity is displayed (as low as) (adult D. suzukii flies): 2%; Minimal concentration (%) to induce 100% morbidity/mortality in D. suzukii adults (adult D. suzukii flies): 2% |
| CCCCCCCCC=O [nonanal, Nonanal] | showed toxicity | Percentage of dead honey bee adults (%) ([1]; applied concentration 3%): 0%; Minimal concentration (%) to induce 100% morbidity/mortality in D. suzukii adults (adult D. suzukii flies): 3% |
| CCCC/C=C/C=O [(E)-2-heptenal] | showed toxicity | Percentage of dead honey bee adults (%) ([1]; applied concentration 3%): 0%; Minimal concentration (%) to induce 100% morbidity/mortality in D. suzukii adults (adult D. suzukii flies): 3% |
| CC/C=C\CC/C=C/C=O [(E)-2,(Z)-6-nonadienal, trans-2,cis-6-Nonadienal] | showed toxicity | Percentage of dead honey bee adults (%) ([1]; applied concentration 3%): 10%; Minimal concentration (%) to induce 100% morbidity/mortality in D. suzukii adults (adult D. suzukii flies): 3% |

| Structure (SMILES) | airborne toxicity/lethality in the initial screen with a high dose (words) (D. suzukii; [2]) | other results |
| --- | --- | --- |
| CCCCC=O [pentanal, Pentanal] | showed toxicity | – |
| COC(=O)c1ccccc1O [methyl salicylate] | showed toxicity | – |
| CC/C=C/C=O [(E)-2-pentenal] | showed toxicity | – |
| O=Cc1ccccc1 [benzaldehyde, Benzaldehyde] | showed toxicity | – |
| CC(C)OC(=O)C1CCCC1 [isopropyl cyclopentanecarboxylate, Isopropyl cyclopentanecarboxylate] | showed toxicity | – |
| CCCCCC/C=C/C=O [E-2-nonenal] | showed toxicity | concentration at which toxicity is displayed (as low as) (adult D. suzukii flies): 2% |
| CC/C=C/CCO [E-3-hexenol] | – | airborne toxicity/lethality in the initial screen with a high dose (words) (D. suzukii; in vivo): showed toxicity |
| CC(=O)c1ccccc1 [acetophenone, Acetophenone] | showed toxicity | – |
| CCCCCCO [1-hexanol] | showed toxicity | – |
| COC(=O)C1CCCC1 [methyl cyclopentanecarboxylate, Methyl cyclopentanecarboxylate] | showed toxicity | – |
| CCCCCC(C)=O [2-heptanone] | showed toxicity | – |
| CCC(C)C(=O)OC (centres unmarked) [methyl 2-methylbutyrate, Methyl 2-methyl butyrate] | showed toxicity | – |
| COC(=O)C1CCCCC1 [methyl cyclohexanoate] | showed toxicity | – |
| CCOC(=O)Cc1ccccc1 [ethyl phenyl acetate, Ethyl phenylacetate] | showed toxicity | time to 100% dead flies (D. suzukii; [3]): half an hour |
| O=C(OCc1ccccc1)c1ccccc1O [benzyl salicylate, Benzyl salicylate, reference compound] | did not cause mortality; also recorded: not toxic | – |
| CCCCCOC(=O)c1ccccc1 [pentyl benzoate, Pentyl benzoate] | showed toxicity | time to 100% dead flies (D. suzukii; [3]): an hour |
| CCCCCCCC=O [octanal, Octanal] | showed toxicity | – |
| CCCCCCCCC/C=C/C=O [E-2-dodecenal] | showed toxicity | – |
